pIC50: −log10 of the molar value.
What was measured:
[1] = biological target: von Hippel-Lindau disease tumor suppressor/Bromodomain-containing protein 2 (Homo sapiens, UniProt P25440+P40337); assay: Proteolysis targeting chimera activity in human 22Rv1 cells assessed as induction of VHL-mediated delivery of BRD2 for protein degradation by proteasome by measuring drug level causing 50% substrate depletion incubated for 16 hrs by Western blot method; assay type: cell-based
[2] = test system: VCaP; assay: Antitumor activity against human VCaP cells xenografted in SCID mouse assessed as tumor growth inhibition at 10 mg/kg, sc administered every 3 days for 16 days relative to control; assay type: functional; conditions: read-out: TGI
[3] = biological target: Protein cereblon/Tyrosine-protein kinase ABL1 (Homo sapiens) (UniProt P00519+Q96SW2); assay: Proteolysis targeting chimera activity in human K562 cells assessed as induction of cereblon-mediated delivery of ABL for protein degradation by proteasome at 1 uM after 24 hrs by immuno blot analysis relative to control; assay type: cell-based
[4] = biological target: Protein cereblon/Tyrosine-protein kinase ABL1/Breakpoint cluster region protein (Homo sapiens) (UniProt P00519+P11274+Q96SW2); assay: Proteolysis targeting chimera activity in human K562 cells assessed as induction of cereblon-mediated delivery of BCR-ABL for protein degradation by proteasome at 1 uM after 24 hrs by immuno blot analysis relative to control; assay type: cell-based
[5] = biological target: Protein cereblon/Peptidyl-prolyl cis-trans isomerase FKBP1A (Homo sapiens, UniProt P62942+Q96SW2); assay: Proteolysis targeting chimera activity in human MV4-11 cells assessed as induction of cereblon-mediated delivery of FKBP12 for protein degradation by proteasome incubated for 18 hrs by immuno blot analysis; assay type: cell-based
[6] = biological target: von Hippel-Lindau disease tumor suppressor/Steroid hormone receptor ERR1 (Homo sapiens, UniProt P11474+P40337); assay: Proteolysis targeting chimera activity in human MCF7 cells assessed as induction of VHL-mediated delivery of ERRalpha for protein degradation by proteasome by measuring drug level causing 50% substrate depletion incubated for 24 hrs by Western blot method; assay type: cell-based
[7] = test system: Heart; assay: In vivo induction of ERRalpha degradation in CD-1 mouse heart at 100 mg/kg, ip every 8 hrs measured 5 hrs post last dose by LC/MS analysis relative to control; assay type: functional
[8] = test system: Kidney; assay: In vivo induction of ERRalpha degradation in CD-1 mouse kidney at 100 mg/kg, ip every 8 hrs measured 5 hrs post last dose by LC/MS analysis relative to control; assay type: functional
[9] = test system: MDA-MB-231; assay: In vivo induction of ERRalpha degradation in human MDA-MB-231 cells xenografted in […] mouse at 100 mg/kg, ip every 8 hrs measured 5 hrs post last dose by LC/MS analysis relative to control; assay type: functional
[10] = biological target: T1, Protein cereblon/Bromodomain-containing protein 4 (Homo sapiens, UniProt O60885+Q96SW2); assay: Proteolysis targeting chimera activity in human BL cells assessed as induction of cereblon-mediated delivery of BRD4 for protein degradation by proteasome by immuno blot analysis; assay type: cell-based
[11] = biological target: T1, Protein cereblon/Bromodomain-containing protein 4; assay: Proteolysis targeting chimera activity in human MV4-11 cells assessed as induction of cereblon-mediated delivery of BRD4 for protein degradation by proteasome at 100 nM incubated for 18 hrs by immuno blot analysis; assay type: cell-based

T1 sequence (Q96SW2 whole entry, looked up, other chains not shown): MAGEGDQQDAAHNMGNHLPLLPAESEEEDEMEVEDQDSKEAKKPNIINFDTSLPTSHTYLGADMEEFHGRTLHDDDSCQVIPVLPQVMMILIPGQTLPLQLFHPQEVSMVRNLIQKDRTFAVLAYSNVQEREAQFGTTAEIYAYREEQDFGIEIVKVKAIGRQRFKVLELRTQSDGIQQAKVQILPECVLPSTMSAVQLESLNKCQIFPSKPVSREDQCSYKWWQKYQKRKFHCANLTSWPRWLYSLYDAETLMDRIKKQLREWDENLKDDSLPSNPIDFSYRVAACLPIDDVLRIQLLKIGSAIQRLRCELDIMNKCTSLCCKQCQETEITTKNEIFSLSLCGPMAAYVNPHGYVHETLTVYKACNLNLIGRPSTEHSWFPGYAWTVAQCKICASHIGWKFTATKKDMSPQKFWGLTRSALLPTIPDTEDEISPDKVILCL
Chain of Protein cereblon/Tyrosine-protein kinase ABL1 (Homo sapiens) (P00519 whole entry, looked up): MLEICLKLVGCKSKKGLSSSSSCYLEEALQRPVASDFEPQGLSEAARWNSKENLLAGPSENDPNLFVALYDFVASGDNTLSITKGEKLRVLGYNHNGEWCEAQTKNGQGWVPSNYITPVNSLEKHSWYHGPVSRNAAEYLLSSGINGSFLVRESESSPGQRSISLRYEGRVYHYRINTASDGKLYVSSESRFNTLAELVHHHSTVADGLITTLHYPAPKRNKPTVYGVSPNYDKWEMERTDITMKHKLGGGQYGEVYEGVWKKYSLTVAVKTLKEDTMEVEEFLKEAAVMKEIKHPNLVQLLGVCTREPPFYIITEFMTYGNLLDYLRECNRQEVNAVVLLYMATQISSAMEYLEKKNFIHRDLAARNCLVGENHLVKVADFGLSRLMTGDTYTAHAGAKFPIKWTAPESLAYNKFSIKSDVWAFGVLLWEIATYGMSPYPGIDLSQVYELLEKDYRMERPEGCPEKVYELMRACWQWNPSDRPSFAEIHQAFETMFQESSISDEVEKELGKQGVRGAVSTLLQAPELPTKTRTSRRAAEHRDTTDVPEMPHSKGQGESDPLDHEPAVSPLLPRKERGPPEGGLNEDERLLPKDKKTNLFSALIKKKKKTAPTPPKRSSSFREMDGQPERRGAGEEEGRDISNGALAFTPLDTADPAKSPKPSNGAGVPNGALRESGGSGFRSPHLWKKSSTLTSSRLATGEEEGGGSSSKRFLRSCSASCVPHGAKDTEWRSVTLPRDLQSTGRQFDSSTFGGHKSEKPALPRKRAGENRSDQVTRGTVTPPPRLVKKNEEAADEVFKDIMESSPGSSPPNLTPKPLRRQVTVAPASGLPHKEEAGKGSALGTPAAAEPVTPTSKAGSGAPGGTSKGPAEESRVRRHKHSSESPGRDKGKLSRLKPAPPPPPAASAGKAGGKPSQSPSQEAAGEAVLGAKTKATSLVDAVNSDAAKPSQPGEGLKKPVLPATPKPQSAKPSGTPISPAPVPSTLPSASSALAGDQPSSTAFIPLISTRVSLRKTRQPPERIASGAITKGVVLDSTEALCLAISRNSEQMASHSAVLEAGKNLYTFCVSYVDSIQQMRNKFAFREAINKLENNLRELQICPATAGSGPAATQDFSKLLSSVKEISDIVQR
Chain of Protein cereblon/Tyrosine-protein kinase ABL1 (Homo sapiens) (Q96SW2 whole entry, looked up): as the sequence (Q96SW2 whole entry, looked up, other chains not shown) above
Chain of Protein cereblon/Tyrosine-protein kinase ABL1/Breakpoint cluster region protein (Homo sapiens) (P00519 whole entry, looked up): as the sequence (P00519 whole entry, looked up) above
Chain of Protein cereblon/Tyrosine-protein kinase ABL1/Breakpoint cluster region protein (Homo sapiens) (P11274 whole entry, looked up): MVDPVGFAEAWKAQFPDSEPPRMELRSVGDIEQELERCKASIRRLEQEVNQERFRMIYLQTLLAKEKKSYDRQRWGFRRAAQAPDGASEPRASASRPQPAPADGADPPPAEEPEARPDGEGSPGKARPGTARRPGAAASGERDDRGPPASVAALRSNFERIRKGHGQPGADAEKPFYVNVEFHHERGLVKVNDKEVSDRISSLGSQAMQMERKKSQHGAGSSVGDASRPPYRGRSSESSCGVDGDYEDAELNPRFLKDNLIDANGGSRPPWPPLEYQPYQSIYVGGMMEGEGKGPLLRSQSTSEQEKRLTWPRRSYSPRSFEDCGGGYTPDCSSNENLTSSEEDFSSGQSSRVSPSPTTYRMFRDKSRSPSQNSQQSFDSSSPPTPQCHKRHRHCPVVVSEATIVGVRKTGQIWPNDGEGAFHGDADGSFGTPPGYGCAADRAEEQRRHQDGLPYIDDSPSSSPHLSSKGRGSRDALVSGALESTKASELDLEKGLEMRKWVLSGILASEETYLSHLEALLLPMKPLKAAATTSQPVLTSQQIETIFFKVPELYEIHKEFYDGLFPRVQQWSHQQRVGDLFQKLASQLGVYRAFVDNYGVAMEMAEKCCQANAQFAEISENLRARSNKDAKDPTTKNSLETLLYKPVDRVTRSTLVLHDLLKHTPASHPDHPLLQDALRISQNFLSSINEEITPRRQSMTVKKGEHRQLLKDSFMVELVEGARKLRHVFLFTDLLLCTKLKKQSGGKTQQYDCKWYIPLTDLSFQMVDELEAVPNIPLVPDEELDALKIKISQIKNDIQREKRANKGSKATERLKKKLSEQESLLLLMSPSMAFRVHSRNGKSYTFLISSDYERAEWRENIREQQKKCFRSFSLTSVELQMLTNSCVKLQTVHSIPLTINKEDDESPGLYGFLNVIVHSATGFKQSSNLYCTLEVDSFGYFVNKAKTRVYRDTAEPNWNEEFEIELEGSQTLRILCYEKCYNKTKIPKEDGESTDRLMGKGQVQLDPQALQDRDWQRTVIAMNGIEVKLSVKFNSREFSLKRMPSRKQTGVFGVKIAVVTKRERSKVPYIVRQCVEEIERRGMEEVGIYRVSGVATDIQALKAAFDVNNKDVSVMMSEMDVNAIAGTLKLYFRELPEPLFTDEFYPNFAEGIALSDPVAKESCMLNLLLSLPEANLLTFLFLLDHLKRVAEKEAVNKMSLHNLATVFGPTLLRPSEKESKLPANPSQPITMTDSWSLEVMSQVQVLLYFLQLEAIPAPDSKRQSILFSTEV
Chain of Protein cereblon/Tyrosine-protein kinase ABL1/Breakpoint cluster region protein (Homo sapiens) (Q96SW2 whole entry, looked up): as the sequence (Q96SW2 whole entry, looked up, other chains not shown) above

Cc1ncsc1-c1ccc([C@H](C)NC(=O)[C@@H]2C[C@@H](O)CN2C(=O)[C@@H](NC(=O)COCCCOCCNC(=O)C[C@@H]2N=C(c3ccc(Cl)cc3)c3c(sc(C)c3C)-n3c(C)nnc32)C(C)(C)C)cc1
pIC50 [1]: > 8.30
inhibition in vivo at 10 mg/kg [2]: 60%

Cc1nc(Nc2ncc(C(=O)Nc3c(C)cccc3Cl)s2)cc(N2CCN(CCCCCCOCCOCCOCCCCCc3cccc4c3C(=O)N(C3CCC(=O)NC3=O)C4=O)CC2)n1 (stereo not drawn)
Imax [3]: > 85%
Imax [4]: > 60%

CCC(C)(C)C(=O)C(=O)N1CCCC[C@H]1C(=O)O[C@H](CCc1ccc(OC)c(OC)c1)c1cccc(NC(=O)CCC(=O)NCCNC(=O)COc2cccc3c2C(=O)N(C2CCC(=O)NC2=O)C3=O)c1 (stereo partly drawn)
pIC50 [5]: 8.00

COc1cc(/C=C2\SC(=O)N(CCOCCC(=O)N[C@H](C(=O)N3C[C@H](O)C[C@H]3C(=O)NCc3ccc(-c4scnc4C)cc3)C(C)(C)C)C2=O)ccc1Oc1ccc(C#N)cc1C(F)(F)F
pIC50 [6]: 7.00
Activity [7]: 40%
Activity [8]: 40%
Activity [9]: 40%

COc1cc(Nc2c(C#N)cnc3cc(OCCCN4CCN(CCCCCCOCCOCCOCCCCCc5cccc6c5C(=O)N(C5CCC(=O)NC5=O)C6=O)CC4)c(OC)cc23)c(Cl)cc1Cl (stereo not drawn)
Imax [3]: 90%
Imax [4]: 80%

Cc1sc2c(c1C)C(c1ccc(Cl)cc1)=C[C@@H](CC(=O)Nc1ccc(OCCOCCOCCOCCNc3cccc4c3C(=O)N(C3CCC(=O)NC3=O)C4=O)cc1)c1nnc(C)n1-2 (stereo partly drawn)
pIC50 [10]: > 9.00

Cc1sc2c(c1C)C(c1ccc(Cl)cc1)=C[C@@H](CC(=O)NCCCCNC(=O)COc1cccc3c1C(=O)N(C1CCC(=O)NC1=O)C3=O)c1nnc(C)n1-2 (stereo partly drawn)
Imax [11]: > 85%

From ChEMBL document CHEMBL4190166 (Medchemcomm, 2016)
